Laboratory results taken from patent publication US12162820B2 (TAIWANJ PHARMACEUTICALS CO., LTD., priority 2019, dated 2024).

Assays:
Assay type in all cases: biochemical
HDAC3 = target: T1, HDAC3 (Homo sapiens, UniProt O15379); assay: HDAC Inhibition Screening Assay (FLUOR DE LYS Fluorimetric Drug Discovery Kit), HDAC3; details: for inhibition at 2 µM: 2 μM compound; for inhibition at 10 µM: 10 μM compound; for inhibition at 50 µM: 50 μM compound
T1 construct: purchased Enzo Life Sciences
In short: (§1)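 Compounds at 2 μM, 10 μM and 50 μM were each tested against HDAC1, HDAC2 and HDAC3 using a two-step fluorimetric assay. Results are given as percent of basal control after baseline subtraction.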

HDAC1 = target: T2, HDAC1 (Homo sapiens, UniProt Q13547); assay: HDAC Inhibition Screening Assay (FLUOR DE LYS Fluorimetric Drug Discovery Kit), HDAC1; details: for inhibition at 2 µM: 2 μM compound; for inhibition at 10 µM: 10 μM compound; for inhibition at 50 µM: 50 μM compound
T2 construct: purchased Enzo Life Sciences
T2 sequence (Q13547 whole entry): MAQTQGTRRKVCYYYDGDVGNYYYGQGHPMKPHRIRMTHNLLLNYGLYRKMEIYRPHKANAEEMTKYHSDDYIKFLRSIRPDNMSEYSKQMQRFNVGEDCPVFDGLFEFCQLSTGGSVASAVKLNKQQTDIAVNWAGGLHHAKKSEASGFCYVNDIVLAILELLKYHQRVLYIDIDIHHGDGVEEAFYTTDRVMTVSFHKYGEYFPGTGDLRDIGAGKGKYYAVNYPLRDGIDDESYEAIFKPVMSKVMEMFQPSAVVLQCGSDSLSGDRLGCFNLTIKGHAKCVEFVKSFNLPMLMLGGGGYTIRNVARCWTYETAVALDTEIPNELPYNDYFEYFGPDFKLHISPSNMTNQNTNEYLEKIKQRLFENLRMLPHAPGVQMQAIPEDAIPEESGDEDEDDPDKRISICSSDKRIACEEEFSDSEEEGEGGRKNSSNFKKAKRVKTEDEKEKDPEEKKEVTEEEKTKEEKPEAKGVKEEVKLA
In short: as §1

HDAC2 = target: T3, HDAC2 (Homo sapiens, UniProt Q92769); assay: HDAC Inhibition Screening Assay (FLUOR DE LYS Fluorimetric Drug Discovery Kit), HDAC2; details: for inhibition at 2 µM: 2 μM compound; for inhibition at 10 µM: 10 μM compound; for inhibition at 50 µM: 50 μM compound
T3 construct: purchased Enzo Life Sciences
T3 sequence (Q92769 whole entry): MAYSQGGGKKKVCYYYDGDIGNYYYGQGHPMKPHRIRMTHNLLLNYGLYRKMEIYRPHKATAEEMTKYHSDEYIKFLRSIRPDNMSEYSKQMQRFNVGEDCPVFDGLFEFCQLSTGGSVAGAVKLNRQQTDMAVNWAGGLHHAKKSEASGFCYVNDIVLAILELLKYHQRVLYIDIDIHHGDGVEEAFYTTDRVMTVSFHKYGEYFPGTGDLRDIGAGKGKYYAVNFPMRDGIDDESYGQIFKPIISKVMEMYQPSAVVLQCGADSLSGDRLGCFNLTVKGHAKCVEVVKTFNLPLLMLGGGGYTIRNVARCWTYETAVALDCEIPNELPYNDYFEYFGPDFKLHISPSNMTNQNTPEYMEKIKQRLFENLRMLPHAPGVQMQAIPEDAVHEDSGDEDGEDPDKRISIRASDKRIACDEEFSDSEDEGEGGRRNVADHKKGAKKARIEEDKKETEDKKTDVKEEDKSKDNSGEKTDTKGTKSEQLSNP
In short: as §1

ATX (autotaxin) = target: T4, ATX (autotaxin) (Homo sapiens, UniProt Q13822); assay: Autotaxin Inhibition Screening Assay (choline release from LPC, LPC-CR); details: for inhibition at 4 µM: 4 μM compound; for inhibition at 20 µM: 20 μM compound; for inhibition at 50 µM: 50 μM compound
T4 construct: purchased Cayman 10803
In short: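 20 ng ATX incubated with 100 μM 14:0 LPC in 50 mM Tris pH 8.0, 0.01% Triton X-100, 50 mM CaCl2, with choline oxidase/HRP/2 mM HVA coupling; compounds at 4, 20 and 50 μM. HVA fluorescence (ex/em 320/450 nm) read every 60 s for 90 min; inhibition % from slopes corrected for blank versus vehicle.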

T1 sequence (O15379 whole entry): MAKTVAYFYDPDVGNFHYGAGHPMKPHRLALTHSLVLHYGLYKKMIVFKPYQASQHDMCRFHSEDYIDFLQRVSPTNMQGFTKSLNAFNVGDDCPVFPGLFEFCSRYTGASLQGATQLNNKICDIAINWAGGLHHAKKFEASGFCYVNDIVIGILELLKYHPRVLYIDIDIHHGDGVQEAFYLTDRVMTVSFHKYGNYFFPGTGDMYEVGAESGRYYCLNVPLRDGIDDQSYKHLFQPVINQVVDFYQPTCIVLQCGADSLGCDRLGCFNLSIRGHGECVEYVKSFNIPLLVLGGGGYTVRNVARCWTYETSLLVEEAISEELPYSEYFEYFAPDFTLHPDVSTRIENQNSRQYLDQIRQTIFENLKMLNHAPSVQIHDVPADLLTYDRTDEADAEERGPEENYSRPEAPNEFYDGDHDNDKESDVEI
T1 sequence (O75376 395-489 partner limits assumed): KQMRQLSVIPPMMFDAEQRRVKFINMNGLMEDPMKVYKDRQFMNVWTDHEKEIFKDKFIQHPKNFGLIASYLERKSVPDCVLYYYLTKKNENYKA

SMILES	inhibition at 2 µM (HDAC3) [%]	inhibition at 10 µM (HDAC3) [%]	inhibition at 50 µM (HDAC3) [%]	inhibition at 2 µM (HDAC1) [%]	inhibition at 10 µM (HDAC1) [%]	inhibition at 50 µM (HDAC1) [%]	inhibition at 2 µM (HDAC2) [%]	inhibition at 10 µM (HDAC2) [%]	inhibition at 50 µM (HDAC2) [%]	inhibition at 4 µM (ATX (autotaxin)) [%]	inhibition at 20 µM (ATX (autotaxin)) [%]	inhibition at 50 µM (ATX (autotaxin)) [%]
Nc1cc(F)ccc1NC(=O)/C=C/c1ccc2c(c1)CCC2NCCC(=O)Nc1cc(C(F)(F)F)cc(C(F)(F)F)c1 (stereo not drawn) [Compound 49, (E)-N-(2-amino-4-fluorophenyl)-3-(1-((3-((3,5-bis(trifluoromethyl)phenyl)amino)-3-oxopropyl)amino)-2,3-dihydro-1H-inden-5-yl)acrylamide]	< 50	< 50	50 to 80	< 50	< 50	< 50	< 50	< 50	50 to 80	< 50	< 50	< 50
O=C(/C=C/c1ccc2c(c1)CCC2NCCC(=O)Nc1cc(C(F)(F)F)cc(C(F)(F)F)c1)NO (stereo not drawn) [Compound 50, (E)-3-(1-((3-((3,5-bis(trifluoromethyl)phenyl)amino)-3-oxopropyl)amino)-2,3-dihydro-1H-inden-5-yl)-N-hydroxyacrylamide]	> 80	> 80	> 80	> 80	> 80	> 80	> 80	> 80	> 80	< 50	< 50	< 50
COc1ccc(CCNC2CCc3cc(/C=C/C(=O)Nc4ccc(F)cc4N)ccc32)cc1 (stereo not drawn) [Compound 51, (E)-N-(2-amino-4-fluorophenyl)-3-(1-((4-methoxyphenethyl)amino)-2,3-dihydro-1H-inden-5-yl) acrylamide]	> 80	> 80	> 80	< 50	50 to 80	> 80	50 to 80	> 80	> 80	< 50	< 50	< 50
O=C(/C=C/c1ccc2c(c1)CCC2NCCc1cc(C(F)(F)F)cc(C(F)(F)F)c1)NO (stereo not drawn) [Compound 54, (E)-3-(1-((3,5-bis(trifluoromethyl)phenethyl)amino)-2,3-dihydro-1H-inden-5-yl)-N-hydroxyacrylamide]	> 80	> 80	> 80	> 80	> 80	> 80	> 80	> 80	> 80	< 50	< 50	< 50
O=C(/C=C/c1ccc2c(c1)CCC2NCCc1cc(Cl)cc(Cl)c1)NO (stereo not drawn) [Compound 55, (E)-3-(1-((3,5-dichlorophenethyl)amino)-2,3-dihydro-1H-inden-5-yl)-N-hydroxyacrylamide]	> 80	> 80	> 80	> 80	> 80	> 80	> 80	> 80	> 80	< 50	< 50	< 50

Other lines, results leading:

inhibition at 2 µM (HDAC3) [%]	inhibition at 10 µM (HDAC3) [%]	inhibition at 50 µM (HDAC3) [%]	inhibition at 2 µM (HDAC1) [%]	inhibition at 10 µM (HDAC1) [%]	inhibition at 50 µM (HDAC1) [%]	inhibition at 2 µM (HDAC2) [%]	inhibition at 10 µM (HDAC2) [%]	inhibition at 50 µM (HDAC2) [%]	inhibition at 4 µM (ATX (autotaxin)) [%]	inhibition at 20 µM (ATX (autotaxin)) [%]	inhibition at 50 µM (ATX (autotaxin)) [%]	SMILES
> 80	> 80	> 80	> 80	> 80	> 80	> 80	> 80	> 80	< 50	< 50	< 50	COc1ccc(CCNC2CCc3cc(/C=C/C(=O)NO)ccc32)cc1 (stereo not drawn) [Compound 52, (E)-N-hydroxy-3-(1-((4-methoxyphenethyl)amino)-2,3-dihydro-1H-inden-5-yl)acrylamide]
> 80	> 80	> 80	> 80	> 80	> 80	> 80	> 80	> 80	< 50	< 50	< 50	O=C(/C=C/c1ccc2c(c1)CCC2NCCc1ccc(F)cc1)NO (stereo not drawn) [Compound 53]
> 80	> 80	> 80	> 80	> 80	> 80	> 80	> 80	> 80	< 50	< 50	< 50	CN(C)c1ccc(CCNC2CCc3cc(/C=C/C(=O)NO)ccc32)cc1 (stereo not drawn) [Compound 56, (E)-3-(1-((4-(dimethylamino)phenethyl)amino)-2,3-dihydro-1H-inden-5-yl)-N-hydroxyacrylamide]
